Experimental findings from patent publication US8227498B2, “Inhibitors of glutaminyl cyclase” (Probiodrug AG, priority 2007, dated 2012) are described below.

Each structure is given as a SMILES string. pIC50, pKi: −log10 of the molar value.

The target in the assay is glutaminyl cyclase (QC) (Homo sapiens, UniProt Q16769). In words: QC inhibitor assay (fluorometric/spectrophotometric QC activity assays with inhibitory compound added).
Sequence of glutaminyl cyclase (QC) (Q16769 29-361): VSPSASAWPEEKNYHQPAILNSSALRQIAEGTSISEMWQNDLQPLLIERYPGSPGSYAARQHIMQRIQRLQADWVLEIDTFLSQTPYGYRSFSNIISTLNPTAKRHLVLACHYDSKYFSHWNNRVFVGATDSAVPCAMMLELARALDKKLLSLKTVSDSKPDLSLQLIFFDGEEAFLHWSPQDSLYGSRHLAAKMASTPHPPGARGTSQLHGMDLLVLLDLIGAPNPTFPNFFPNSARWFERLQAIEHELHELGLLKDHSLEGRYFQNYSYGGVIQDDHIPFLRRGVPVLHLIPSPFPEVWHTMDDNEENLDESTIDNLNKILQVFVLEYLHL
Protocol: All measurements were performed with a BioAssay Reader HTS-7000Plus for microplates (Perkin Elmer) at 30° C. QC activity was evaluated fluorometrically using H-Gln-βNA. The samples consisted of 0.2 mM fluorogenic substrate, 0.25 U pyroglutamyl aminopeptidase (Unizyme, Hørsholm, Denmark) in 0.2 M Tris/HCl, pH 8.0 containing 20 mM EDTA and an appropriately diluted aliquot of QC in a final volume of 250 μl. Excitation/emission wavelengths were 320/410 nm. The assay reactions were initiated by addition of glutaminyl cyclase. QC activity was determined from a standard curve of β-naphthylamine under assay conditions. One unit is defined as the amount of QC catalyzing the formation of 1 μmol pGlu-MNA from H-Gln-βNA per minute under the described conditions.
In a second fluorometric assay, QC was activity determined using H-Gln-AMC as substrate. Reactions were carried out at 30° C. utilizing the NOVOStar reader for microplates (BMG labtechnologies). The samples consisted of varying concentrations of the fluorogenic substrate, 0.1 U pyroglutamyl aminopeptidase (Qiagen) in 0.05 M Tris/HCl, pH 8.0 containing 5 mM EDTA and an appropriately diluted aliquot of QC in a final volume of 250 μl. Excitation/emission wavelengths were 380/460 nm. The assay reactions were initiated by addition of glutaminyl cyclase. […] The kinetic data were evaluated using GraFit sofware.
This novel assay was used to determine the kinetic parameters for most of the QC substrates. […] Samples consisted of the respective QC substrate, 0.3 mM NADH, 14 mM α-Ketoglutaric acid and 30 U/ml glutamate dehydrogenase in a final volume of 250 μl.
The initial velocities were evaluated and the enzymatic activity was determined from a standard curve of ammonia under assay conditions. All samples were measured at 30° C., using either the [sequence]luor Plus or the Sunrise (both from TECAN) reader for microplates. Kinetic data was evaluated using GraFit software.
For inhibitor testing, the sample composition was the same as described above, except of the putative inhibitory compound added. For a rapid test of QC-inhibition, samples contained 4 mM of the respective inhibitor and a substrate concentration at 1 KM. For detailed investigations of the inhibition and determination of Ki-values, influence of the inhibitor on the auxiliary enzymes was investigated first. […] The inhibitory constant was evaluated by fitting the set of progress curves to the general equation for competitive inhibition using GraFit software.
As a reminder, the pIC50 is −log10 of the IC50, conventionally taken in molar units. A lower pIC50 goes with a large IC50. One may read the pKi as the negative decadic logarithm of the Ki, by convention in mol/L. `Cc1cn(CCCN/C(=N\C#N)Nc2ccc(C(C)C)cc2)cn1` [Example 21, 2-cyano(4-isopropylphenyl)-3-(3-(4-methyl-1H-imidazol-1-yl)propyl)guanidine] had a negative-log IC50 (pIC50) of 4.83 and a negative logarithm of the Ki (pKi) of 5.64. Take `Cc1cn(CCCN/C(=N/C#N)Nc2ccc3ccccc3c2)cn1` [Example 30, 2-cyano(3-(4-methyl-1H-imidazol-1-yl)propyl)-3-(naphthalen-2-yl)guanidine]: the negative logarithm of the IC50 (pIC50) is 4.91 and the pKi is 5.73. In turn, `Cc1cn(CCCN/C(=N/C#N)Nc2ccc3nsnc3c2)cn1` [Example 24, (benzo[c][1,2,5]thiadiazol-6-yl)-2-cyano-3-(3-(4-methyl-1H-imidazol-1-yl)propyl)guanidine] gave a pIC50 of 4.91 and a pKi of 5.66. The matching figures for `Cc1cn(CCCN/C(=N/C#N)Nc2ccc(Cl)c(Cl)c2)cn1` [Example 27, (3,4-dichlorophenyl)-2-cyano-3-(3-(4-methyl-1H-imidazol-1-yl)propyl)guanidine]: 4.77 and 5.59. Turning to `COc1ccc(N/C(=N\C#N)NCCCn2cnc(C)c2)cc1` [Example 28, 2-cyano(4-methoxyphenyl)-3-(3-(4-methyl-1H-imidazol-1-yl)propyl)guanidine], the pIC50 was 4.84 and the negative-log Ki (pKi) was 5.69. The like results for `CCOc1ccc(N/C(=N\C#N)NCCCn2cnc(C)c2)cc1` [Example 17, 2-cyano(4-ethoxyphenyl)-3-(3-(4-methyl-1H-imidazol-1-yl)propyl)guanidine] were, in that order, 5.24 and 5.88. For the compound `Cc1cn(CCCN/C(=N/C#N)Nc2ccc(C#N)cc2)cn1` [Example 26, 2-cyano(4-cyanophenyl)-3-(3-(4-methyl-1H-imidazol-1-yl)propyl)guanidine], the negative-log IC50 (pIC50) was 4.52. Compound `COc1ccc(N/C(=N/C#N)NCCCn2cncc2C)cc1` [Example 15, 2-cyano(4-methoxyphenyl)-3-(3-(5-methyl-1H-imidazol-1-yl)propyl)guanidine] showed a negative logarithm of the IC50 (pIC50) of 6.10 and a negative-log Ki (pKi) of 7.13. `COc1cc(N/C(=N/C#N)NCCCn2cncc2C)cc(OC)c1` [Example 16, 2-cyano(3,5-dimethoxyphenyl)-3-(3-(5-methyl-1H-imidazol-1-yl)propyl)guanidine]: the negative-log IC50 (pIC50) was 6.14 and the negative logarithm of the Ki (pKi) is 6.90. The like results for `Cc1cc(C)c(N/C(=N/C#N)NCCCn2cnc(C)c2)c(C)c1` [Example 20, 2-cyano(mesityl)-3-(3-(4-methyl-1H-imidazol-1-yl)propyl)guanidine] were, in that order, 5.07 and 5.89. `Cc1cncn1CCCN/C(=N\C#N)Nc1ccc(C(C)C)cc1` [Example 2] gave a pIC50 of 6.26 and a negative logarithm of the Ki (pKi) of 7.04. Compound `Cc1cncn1CCCN/C(=N/C#N)Nc1ccc(C#N)cc1` [Example 4, 2-cyano(4-cyanophenyl)-3-(3-(5-methyl-1H-imidazol-1-yl)propyl)guanidine] showed a negative-log IC50 (pIC50) of 5.98 and a negative-log Ki (pKi) of 6.73. In turn, `Cc1cncn1CCCN/C(=N\C#N)Nc1ccc2nsnc2c1` [Example 12, (3-(5-methyl-1H-imidazol-1-yl)propyl)-3-(benzo[c][1,2,5]thiadiazol-6-yl)-2-cyanoguanidine] showed a negative logarithm of the IC50 (pIC50) of 5.87 and a pKi of 6.88. Turning to `CCc1ccc(N/C(=N/C#N)NCCCn2cnc(C)c2)cc1` [Example 22, 2-cyano(4-ethylphenyl)-3-(3-(4-methyl-1H-imidazol-1-yl)propyl)guanidine], the pIC50 is 4.86 and the pKi was 5.63. For the compound `Cc1cncn1CCCN/C(=N\C#N)Nc1ccc2c(c1)OCO2` [Example 14, (benzo[d][1,3]dioxol-6-yl)-2-cyano-3-(3-(5-methyl-1H-imidazol-1-yl)propyl)guanidine], the pIC50 is 6.23 and the pKi is 6.96. Turning to `Cc1cc(C)c(N/C(=N/C#N)NCCCn2cncc2C)c(C)c1` [Example 8, (3-(5-methyl-1H-imidazol-1-yl)propyl)-2-cyano-3-mesitylguanidine], the pIC50 was 6.20 and the pKi is 6.97. Compound `Cc1cncn1CCCN/C(=N\C#N)Nc1cccc2ccccc12` [Example 11, (3-(5-methyl-1H-imidazol-1-yl)propyl)-2-cyano-3-(naphthalen-1-yl)guanidine] had a negative-log IC50 (pIC50) of 6.21 and a negative-log Ki (pKi) of 6.99. Turning to `Cc1cncn1CCCN/C(=N\C#N)Nc1ccc2ccccc2c1` [Example 10, (3-(5-methyl-1H-imidazol-1-yl)propyl)-2-cyano-3-(naphthalen-2-yl)guanidine], the negative-log IC50 (pIC50) was 5.96 and the pKi is 7.03. On to `CCOc1ccc(N/C(=N\C#N)NCCCn2cncc2C)cc1` [Example 6, 2-cyano(4-ethoxyphenyl)-3-(3-(5-methyl-1H-imidazol-1-yl)propyl)guanidine], for which the pIC50 is 5.96 and the pKi is 7.04. As for `COc1cc(N/C(=N\C#N)NCCCn2cnc(C)c2)cc(OC)c1` [Example 18, 2-cyano(3,5-dimethoxyphenyl)-3-(3-(4-methyl-1H-imidazol-1-yl)propyl)guanidine], the pIC50 was 4.91. For `CCc1ccc(N/C(=N/C#N)NCCCn2cncc2C)cc1` [Example 1, 2-cyano(4-ethylphenyl)-3-(3-(5-methyl-1H-imidazol-1-yl)propyl)guanidine], the negative-log IC50 (pIC50) is 6.21 and the pKi was 6.77.

As for `Cc1cn(CCCN/C(=N\C#N)Nc2cccc3ccccc23)cn1` [Example 23, 2-cyano(3-(4-methyl-1H-imidazol-1-yl)propyl)-3-(naphthalen-1-yl)guanidine], the pIC50 is 4.86 and the pKi is 5.77.

On to `Cc1cn(CCCN/C(=N/C#N)Nc2ccc(-c3ccccc3)cc2)cn1` [Example 29, 2-cyano-1-[3-(4-methyl-1H-imidazol-1-yl)propyl]-4-phenylbenzene-1-guanidine], for which the pIC50 was 4.98 and the negative-log Ki (pKi) is 5.80.
